Measured values as given in patent publication US20260314597A1, “A NOVEL APPROACH TO INTERFERE IN THE PHENYLPROPANOID BIOSYNTHETIC PATHWAY TO REDUCE PINK-RIB DISORDER IN FRESH LETTUCE” (University of Florida Research Foundation, Inc., priority 2022, published 2026).
“Also recorded” adds a separate entry of the source. Like-named read-outs stand apart in the source and are kept apart here.

Tests used:
polyphenol oxidase (PPO) = assay: PPO activity in treated wounded midribs; format: biochemical, lettuce (iceberg, Romaine); settings: 5 d at 5° C.; for PPO activity: L-cysteine 4.1 mM or melatonin 4.3 mM; for effect on PPO activity: iceberg and Romaine
Text: (§1) In all tests, experimental setup began immediately upon arrival to the laboratory. 90 outer leaves were randomly selected from 18 to 22 lettuce heads that met commercial and damage-free quality standards. A midrib segment (12.5 cm) was excised from the center of each leaf and excess leaf blade tissue was trimmed parallel to the midrib. This procedure was adapted from the wounding procedure of Cantwell (2016). Each midrib was then partially sliced transversally at 1.3-cm increments along the midrib. Midribs (n=15) were immediately immersed for 30 s in one of five treatment solutions: deionized water (wounded control), L-cysteine (4.1 mM), naringenin (1.8 mM) with 20% dimethyl sulfoxide (DMSO), serotonin (2.8 or 5.7 mM) or melatonin (4.3 mM) with 0.50% DMSO. Immediately following immersion, the midribs for each treatment were patted dry using paper towels and placed (n=5) in a breathable, high-density polyethylene bag (n=3) (Narrow Profile Produce Bags [14×18 inches] Model No. S-19156, Uline®, Pleasant Prairie, WI). Unwounded control midribs were stored in the same manner. To allow for direct comparison, each cut site on each midrib was assigned an initial discoloration value on day 1 based on the coloration of the rib. Samples were stored at 5° C. with 95-98% relative humidity (RH) for 5 d, simulating commercial storage.
PPO activity was prepared and determined as reported by Teng et al. (2019) with slight modifications. Lettuce samples (300 mg) were homogenized in 150% (w/v) chilled phosphate buffer (pH 6.2, 0.05 M). Following chilling of test tubes with samples in an ice bath, samples were centrifuged at 9660×g for 10 min at 4° C. The increase in absorbance was measured every 3 s for 1 min. The slope of the linear portion of the time curve was calculated. One unit (U) of PPO activity was defined as an increase in OD410 of 0.1 unit within 1 min.
The imaging data (a* value), enzyme activity (PAL and PPO), and metabolite (chlorogenic acid) results were expressed as mean±standard error and analyzed by lettuce type (iceberg or Romaine). For imaging data, an unpaired t-test was used to identify differences within a treatment throughout storage and among treatment groups at each time point. Treatment groups were defined as wounded, unwounded, L-cysteine, and melatonin. […] Analyses of variance were performed for PAL, PPO, and metabolite analyses using SAS software (version 9.4; SAS Institute, Cary, NC) to identify differences among treatment groups. Differences among treatments groups were separated by Tukey's Honest Significant Difference (HSD) test with a confidence level of 95%. The correlation between visual rating and a* value was evaluated for significance via an F-test, from which the P-value of the correlation was calculated.

fresh-cut fennel = settings: L-cysteine 0.5% or 41.3 mM; 6 d at 5° C.; cited from earlier work
fresh-cut cherimoya = settings: L-cysteine 0.5% or 41.3 mM; 0° C.; cited from earlier work
PPO [1] = settings: role: inhibitor; L-cysteine 1% or 82.5 mM; after 2 d and up to 8 d at 1° C.; cited from earlier work
romaine lettuce midribs = assay: Pink rib discoloration of romaine midribs / whole leaflets dipped 1 min, stored at 10° C.; format: in vivo
Description: Pink rib discoloration in excised midrib segments of romaine lettuce was shown above. […] 4.3 mM of melatonin solution was prepared in water containing 0.5% DMSO (dimethyl sulfoxide), and control samples were treated with water containing 0.5% DMSO.
1 mM of melatonin solution was prepared in water containing 0.5% DMSO (dimethyl sulfoxide) and control samples were treated with water containing 0.5% DMSO.

PPO [2] = settings: melatonin 0.1 mM; after 2 d; cited from earlier work
[3] = system: nonenzymatic antioxidants, such as phenolics, flavonoids, and anthocyanins; settings: melatonin; cited from earlier work
[4] = system: metabolites in wounded Romaine lettuce midrib; assay: Untargeted LC-MS/MS metabolomics of melatonin-treated wounded midribs (Test 3); format: in vivo, lettuce (Romaine 'Manatee')
Description: For Test 1, the evaluations for pink rib development, protein quantification, and enzyme activity were conducted with Romaine and iceberg lettuce heads (36 heads per type; cultivars unknown) purchased (February 2020) upon arrival at a local grocery store in Gainesville, FL, and immediately transported to the Postharvest Horticulture Laboratory at the University of Florida in Gainesville, FL. For Test 2, metabolite extraction and detection were conducted with commercially grown, harvested, and cooled Romaine (‘Tall Guzmaine’) and iceberg (‘Chosen’) lettuce (December 2020) grown in Belle Glade, FL. For Test 3, untargeted metabolomics was performed using commercially grown, harvested, and cooled Romaine (‘Manatee’) lettuce grown in Belle Glade, FL (April 2021). To keep the lettuce head samples cool while preventing freeze damage during transport, a 3- to 6-inch layer of crushed ice was placed on the bottom of each 114-L cooler. A piece of waxed, corrugated fiberboard was placed on top of the ice prior to packing with the lettuce samples for transport the same day to the Postharvest Horticulture Laboratory in Gainesville (approximately 4 h distant).
as §1
Unwounded, wounded, and compound-treated wounded midrib samples were collected for untargeted metabolite analysis to identify global metabolite changes in response to melatonin application and targeted metabolite analysis to quantify chlorogenic acid a major caffeoyl compound in lettuce. For both targeted and untargeted metabolite analyses, fresh samples (500-800 mg) of the midribs from each treatment (n=3) were weighed, then immediately frozen in liquid nitrogen and stored at −80° C. for subsequent metabolite extraction. Frozen samples were extracted with a 50% methanol extraction solution containing a 1:1 (v:v) of methanol with deionized water. Samples were completely submerged in a 1:1.5 (w:v) of the sample weight (mg) to extraction solution volume (μL), respectively, and incubated at 65° C. for 90 min and then centrifuged at 9660×g for 10 min (MC-12 High Speed Micro Centrifuge, Benchmark Scientific, Edison, NJ). The supernatant was transferred to a new tube and filtered with a 0.45 μm filter (Choice, Thermo Scientific, Wilmington, DE). An aliquot of 400 μL was vacuum-dried.
For untargeted metabolite analysis, vacuum-dried samples were resuspended into 100 μL of 50% methanol solution containing an internal standard umbelliferon (18 μg mL^−1) and vortexed for 1 min. After centrifugation at 13,000×g for 15 min, the solutions were transferred to sample inserts and analyzed. […]

cassava roots = settings: melatonin 0.1 mM, cited from earlier work

Row | Structure (SMILES) | PPO activity (polyphenol oxidase (PPO); Romaine, wounded control 5.1) [U] | effect on PPO activity (polyphenol oxidase (PPO)) | PPO activity (polyphenol oxidase (PPO); iceberg, wounded control 1.7) [U] | effect on browning of fennel (fresh-cut fennel) | delay of pulp browning (fresh-cut cherimoya) | PPO activity (PPO [1]) | pink rib discoloration vs control (romaine lettuce midribs; melatonin 1 mM in 0.5% DMSO, 4 days) | pink rib discoloration vs control (romaine lettuce midribs; melatonin 4.3 mM in 0.5% DMSO, five days, whole leaflet) | PPO activity (PPO [2]) | nonenzymatic antioxidants (phenolics, flavonoids, anthocyanins) [3] | effect on wounding-related metabolite changes ([4]; Romaine, wounded midrib) | chlorogenic acid abundance, melatonin-treated vs wounded ([4]; Romaine, LC/MS) | number of wounding-diminished compounds increased with melatonin ([4]; of 25 diminished compounds) [compounds] | number of wounding-diminished compounds remaining decreased ([4]; of 25 diminished compounds, vs untreated wounded samples) [compounds] | number of wounding-accumulated compounds reduced in abundance upon melatonin ([4]; of 68 accumulated compounds) [compounds] | number of wounding-accumulated compounds that maintained high abundancy ([4]; of 68 accumulated compounds) | time to which vascular streaking disorder was delayed (cassava roots; 28° C., untreated control 6 h) [h] | delay of vascular streaking / discoloration (cassava roots; vs untreated control)
1 | N[C@@H](CS)C(=O)O [L-cysteine] | 6.4 | no significant differences in PPO activity; also recorded: no effect on PPO activity; also recorded: neither PPO activity nor pink rib expression were reduced | 2.6 | no effect; also recorded: ineffective | up to 12 d | significantly declined | – | – | – | – | – | – | – | – | – | – | – | –
2 | COc1ccc2[nH]cc(CCNC(C)=O)c2c1 [melatonin] | 6.2 | no significant differences in PPO activity; also recorded: no effect on PPO activity; also recorded: neither enzyme activity (PAL or PPO) nor chlorogenic acid concentration were impacted; also recorded: did not significantly affect PAL or PPO enzyme activities | 2.6 | – | – | – | less pink rib discoloration than control samples | less pink rib discoloration than control samples | significantly lower | enhances nonenzymatic antioxidants | reduces overall metabolite changes in wounded lettuce midrib; also recorded: substantially affected wounding-related metabolite changes | remained similar | 16 | 9 | 64 | four | 12 | delayed development of discoloration; also recorded: delayed twice as long as untreated control slices
